SMILES strings stand for the structures.

What all share (type): in vivo
Experiment [1] has as its system Abutilon theophrasti (ABUTH). Description: Herbicidal post-emergence action, 320 g/ha, ABUTH. To be noted: visual grading after ca. 3 weeks. From the text: (§1) Seeds of mono- and dicotyledonous weed plants were sown in plastic pots (double sowings with one species of mono- and one species of dicotyledonous weed plants per pot), in sandy loam, covered with soil and grown under controlled growth conditions. 2 to 3 weeks after sowing, the test plants were sprayed in the single-leaf stage. The compounds according to the invention, formulated in the form of wettable powders (WP) or as emulsifiable concentrates (EC), were sprayed onto the green plant parts as an aqueous suspension or as an emulsion, with the addition of 0.5% of an additive, at an application rate of 600 litres of water per hectare (converted). The test plants were placed in the greenhouse for ca. 3 weeks under optimum growth conditions, and then the effect of the preparations was assessed visually in comparison with untreated controls (herbicidal effect in percent (%): 100% effect=plants have died, 0% effect=as control plants).
(§2) Tables D1 to D8 below, show the effects of selected compounds of the general formula (I) according to Table 1 on various harmful plants using an application rate corresponding to 320 g/ha obtained by the experimental procedure mentioned above.

The test system of experiment [2] is Veronica persica (VERPE). Description: Herbicidal post-emergence action, 320 g/ha, VERPE. To be noted: visual grading after ca. 3 weeks.
Excerpt: as §1, §2

The test system of experiment [3] is Amaranthus retroflexus (AMARE). The experiment in a line: Herbicidal post-emergence action, 320 g/ha, AMARE. To be noted: visual grading after ca. 3 weeks.
Excerpt: as §1, §2

In experiment [4] the test system is Amaranthus retroflexus (AMARE). The experiment in a line: Herbicidal post-emergence action, 1280 g/ha, AMARE. To be noted: visual grading vs untreated controls.
Excerpt: as §1
(§3) Tables B1 to B11 below, show the effects of selected compounds of the general formula (I) according to Table 1 on various harmful plants using an application rate corresponding to 1280 g/ha obtained by the experimental procedure mentioned above.

Experiment [5] concerns Veronica persica (VERPE). Description: Herbicidal post-emergence action, 1280 g/ha, VERPE. To be noted: visual grading vs untreated controls.
Excerpt: as §1, §3

Experiment [6] deals with Kochia scoparia (KCHSC). Description: Herbicidal post-emergence action, 1280 g/ha (Table B4). To be noted: visual assessment after ca. 3 weeks vs untreated controls.
Excerpt: as §1, with “plants). Tables B1 to B11 below, show the effects of selected compounds of the general formula (I) according to Table 1 on various harmful plants using an application rate corresponding to 1280 g/ha obtained by the experimental procedure mentioned above.” for “plants).”

The subject of experiment [7] is Abutilon theophrasti (ABUTH). The experiment in a line: Herbicidal post-emergence action, 1280 g/ha (Table B1). To be noted: visual assessment after ca. 3 weeks vs untreated controls.
Excerpt: as §1, with “plants). Tables B1 to B11 below, show the effects of selected compounds of the general formula (I) according to Table 1 on various harmful plants using an application rate corresponding to 1280 g/ha obtained by the experimental procedure mentioned above.” for “plants).”

Experiment [8] concerns Matricaria inodora (MATIN). The experiment in a line: Herbicidal post-emergence action, 320 g/ha, MATIN. To be noted: visual grading after ca. 3 weeks.
Excerpt: as §1, §2

For experiment [9], the system named is Stellaria media (STEME). The experiment in a line: Herbicidal post-emergence action, 320 g/ha, STEME. To be noted: visual grading after ca. 3 weeks.
Excerpt: as §1, §2

Experiment [10] deals with Lolium rigidum (LOLRI). Description: Herbicidal pre-emergence action, 1280 g/ha (Table A5). To be noted: visual grading after ca. 3 weeks vs untreated controls. From the text: (§4) Seeds of mono- and dicotyledonous weed plants were sown in plastic pots (double sowings with one species of mono- and one species of dicotyledonous weed plants per pot), in sandy loam, and covered with soil. The compounds according to the invention, formulated in the form of wettable powders (WP) or as emulsifiable concentrates (EC), were applied to the surface of the covering soil as an aqueous suspension or as an emulsion, with the addition of 0.5% of an additive, at an application rate of 600 litres of water per hectare (converted). Following treatment, the pots were placed in a greenhouse and kept under optimum growth conditions for the test plants. The visual grading of the damage to the test plants was carried out after ca. 3 weeks in comparison to untreated controls (herbicidal effect in percent (%): 100% effect=plants have died, 0% effect=as control plants). Tables A1 to A11 below, show the effects of selected compounds of the general formula (I) according to Table 1 on various harmful plants and an application rate corresponding to 1280 g/ha obtained by the experimental procedure mentioned above.

Experiment [11] relates to Lolium rigidum (LOLRI). Description: Herbicidal post-emergence action, 1280 g/ha (Table B5). To be noted: visual assessment after ca. 3 weeks vs untreated controls.
Excerpt: as §1, with “plants). Tables B1 to B11 below, show the effects of selected compounds of the general formula (I) according to Table 1 on various harmful plants using an application rate corresponding to 1280 g/ha obtained by the experimental procedure mentioned above.” for “plants).”

Experiment [12] deals with Matricaria inodora (MATIN). Description: Herbicidal pre-emergence action, 1280 g/ha (Table A6). To be noted: visual grading after ca. 3 weeks vs untreated controls.
Excerpt: as §4

In experiment [13] the test system is Stellaria media (STEME). The experiment in a line: Herbicidal pre-emergence action, 1280 g/ha (Table A9). To be noted: visual grading after ca. 3 weeks vs untreated controls.
Excerpt: as §4

Experiment [14] relates to Amaranthus retroflexus (AMARE). The experiment in a line: Herbicidal pre-emergence action, 1280 g/ha (Table A11). To be noted: visual grading after ca. 3 weeks vs untreated controls.
Excerpt: as §4

Experiment [15] concerns Stellaria media (STEME). The experiment in a line: Herbicidal post-emergence action, 1280 g/ha (Table B9). To be noted: visual assessment after ca. 3 weeks vs untreated controls.
Excerpt: as §1, with “plants). Tables B1 to B11 below, show the effects of selected compounds of the general formula (I) according to Table 1 on various harmful plants using an application rate corresponding to 1280 g/ha obtained by the experimental procedure mentioned above.” for “plants).”

Experiment [16] has as its system Kochia scoparia (KCHSC). The experiment in a line: Herbicidal post-emergence action, 320 g/ha, KCHSC. To be noted: visual grading after ca. 3 weeks.
Excerpt: as §1, §2

The subject of experiment [17] is Kochia scoparia (KCHSC). The experiment in a line: Herbicidal pre-emergence action, 1280 g/ha (Table A4). To be noted: visual grading after ca. 3 weeks vs untreated controls.
Excerpt: as §4

For experiment [18], the system named is Matricaria inodora (MATIN). Description: Herbicidal post-emergence action, 1280 g/ha (Table B6). To be noted: visual assessment after ca. 3 weeks vs untreated controls.
Excerpt: as §1, with “plants). Tables B1 to B11 below, show the effects of selected compounds of the general formula (I) according to Table 1 on various harmful plants using an application rate corresponding to 1280 g/ha obtained by the experimental procedure mentioned above.” for “plants).”

The next experiment relates to Poa annua (POAAN). The experiment in a line: Herbicidal pre-emergence action, 1280 g/ha (Table A7). To be noted: visual grading after ca. 3 weeks vs untreated controls.
Excerpt: as §4

Experiment [19] relates to Stellaria media (STEME). The experiment in a line: Herbicidal pre-emergence action, 320 g/ha, STEME. To be noted: visual grading after ca. 3 weeks.
Excerpt: as §4, with “plants).” for “plants). Tables A1 to A11 below, show the effects of selected compounds of the general formula (I) according to Table 1 on various harmful plants and an application rate corresponding to 1280 g/ha obtained by the experimental procedure mentioned above.”
Tables C1 to C6 below, show the effects of selected compounds of the general formula (I) according to Table 1 on various harmful plants using an application rate corresponding to 320 g/ha obtained by the experimental procedure mentioned above.

Experiment [20] has as its system Abutilon theophrasti (ABUTH). The experiment in a line: Herbicidal pre-emergence action, 1280 g/ha (Table A1). To be noted: visual grading after ca. 3 weeks vs untreated controls.
Excerpt: as §4

Regarding `Cc1ccccc1Oc1c(O)c(C)nn(C)c1=O` [Example I-017], the “herbicidal effect ABUTH” value in [1] and in experiment [7] was 90% in each case. Moreover, the “herbicidal effect VERPE” value in the experiment on Veronica persica (VERPE) [2] and in the experiment on Veronica persica (VERPE) [5] was 90% throughout. Also, the “herbicidal effect AMARE” value in [3] and in experiment [4] was 90% each time. In addition, the “herbicidal effect KCHSC” value in the experiment on Kochia scoparia (KCHSC) [6] is listed as 100%.

`CCOC(=O)Oc1c(C)nn(C)c(=O)c1Oc1ccccc1OC(F)(F)F` [Example I-013]: the “herbicidal effect MATIN” value in experiment [8] came to 90%; in experiment [12], 100%; in [18] it was 100%. The “herbicidal effect STEME” value with Stellaria media (STEME) [9], in the experiment on Stellaria media (STEME) [13] and with Stellaria media (STEME) [15] was 100% throughout. For the same molecule, the “herbicidal effect LOLRI” value in the experiment on Lolium rigidum (LOLRI) [10] and in the experiment on Lolium rigidum (LOLRI) [11] was 100% throughout. Besides, the “herbicidal effect VERPE” value is on record as 90% with Veronica persica (VERPE) [2] and 100% with Veronica persica (VERPE) [5]. The “herbicidal effect AMARE” value in experiment [3], in experiment [14] and in experiment [4] was 90% throughout. For the same molecule, the “herbicidal effect KCHSC” value with Kochia scoparia (KCHSC) [16] is 100%; in the experiment with Kochia scoparia (KCHSC) [6] it was 100%; with Kochia scoparia (KCHSC) [17], 90%. For the same molecule, the “herbicidal effect ABUTH” value in experiment [7] turned out to be 100%.

As for `Cc1nn(C)c(=O)c(Oc2ccccc2C(F)(F)F)c1O` [Example I-007, 5-hydroxy-2,6-dimethyl-4-[2-(trifluoromethyl)phenoxy]pyridazin-3-one], the “herbicidal effect LOLRI” value with Lolium rigidum (LOLRI) [10] and with Lolium rigidum (LOLRI) [11] was 90% in each case. Besides, the “herbicidal effect POAAN” value in the experiment on Poa annua (POAAN) came to 100%. The “herbicidal effect STEME” value in the experiment on Stellaria media (STEME) [13] and in the experiment on Stellaria media (STEME) [15] was 100% throughout. Moreover, the “herbicidal effect AMARE” value in experiment [3] and in experiment [4] was 90% in each case. Further, the “herbicidal effect VERPE” value in the experiment on Veronica persica (VERPE) [5] is on record as 90%. For the same molecule, the “herbicidal effect KCHSC” value in the experiment on Kochia scoparia (KCHSC) [6] was determined as 100%. In addition, the “herbicidal effect MATIN” value in experiment [18] is given as 90%.

Consider `CCOC(=O)Oc1c(C)nn(C)c(=O)c1Oc1cc(Cl)ccc1C1CC1` [Example I-070], for which the “herbicidal effect STEME” value with Stellaria media (STEME) [9] came to 90%; in the experiment with Stellaria media (STEME) [13] it was 90%; in the experiment on Stellaria media (STEME) [19], 90%; in the experiment with Stellaria media (STEME) [15], 100%. The “herbicidal effect LOLRI” value in the experiment with Lolium rigidum (LOLRI) [10] and in the experiment with Lolium rigidum (LOLRI) [11] was 100% in each case. The “herbicidal effect ABUTH” value in experiment [1], in experiment [20] and in experiment [7] was 100% in each case. The “herbicidal effect MATIN” value in [12] stood at 100%; in experiment [18], 90%. Further, the “herbicidal effect AMARE” value is recorded as 90% in experiment [3] and 100% in experiment [4]. Besides, the “herbicidal effect VERPE” value in the experiment with Veronica persica (VERPE) [5] turned out to be 90%.

In the case of `Cc1nn(C)c(=O)c(Oc2ccccc2F)c1O` [Example I-021], the “herbicidal effect POAAN” value in the experiment on Poa annua (POAAN) is given as 90%.

Take `Cc1nn(C)c(=O)c(Oc2cc(F)c(F)cc2Br)c1O` [Example I-087]: the figures for the “herbicidal effect MATIN” value in experiment [8] and in experiment [18] were 90% and 100%, respectively. The “herbicidal effect LOLRI” value with Lolium rigidum (LOLRI) [10] is reported as 90%. Besides, the “herbicidal effect VERPE” value in the experiment with Veronica persica (VERPE) [2] and with Veronica persica (VERPE) [5] was 90% throughout. The “herbicidal effect AMARE” value was determined as 90% in [3] and 100% in experiment [4]. In addition, the entries for the “herbicidal effect KCHSC” value with Kochia scoparia (KCHSC) [16] and in the experiment with Kochia scoparia (KCHSC) [6] were 90% and 100%, respectively. The “herbicidal effect ABUTH” value in [7] is 100%.
